# Laboratory results published in US20250215030A1, “STAT MODULATORS AND USES THEREOF” (Recludix Pharma, Inc., priority 2022, published 2025).
# Columns and labels:
# [1] = target: T1, Recombinant STAT3 protein (STAT3(G127-I722)) (Homo sapiens, UniProt P40763); test: STAT3 Fluorescence Polarization (FP) Assay; assay type: binding; conditions: STAT3(G127-I722) 25 nM, probe 5-FAM-GpYLPQTV-NH2 2 nM, 45-minute incubation
# T1 construct: STAT3(G127-I722)
# How it was run: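 STAT3(G127-I722) at 25 nM and 5-FAM-GpYLPQTV-NH2 probe at 2 nM in HEPES pH 7.4 buffer with NaCl, EDTA, Tween 20, DTT; 1% DMSO. FP read after 45 min at room temperature; IC50 by nonlinear regression of mP vs log concentration, binned A ≤100 nM to D >10 μM.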
# [2] = target: T2, Recombinant STAT6 protein (STAT6(W123-T658)) (Homo sapiens, UniProt P42226); test: STAT6 Fluorescence Polarization (FP) Assay; assay type: binding; conditions: STAT6(W123-T658) 250 nM, probe 5-FAM-ApYKPFQDLI-NH2 2 nM, 45-minute incubation
# T2 construct: STAT6(W123-T658)
# T2 sequence (P42226 123-658): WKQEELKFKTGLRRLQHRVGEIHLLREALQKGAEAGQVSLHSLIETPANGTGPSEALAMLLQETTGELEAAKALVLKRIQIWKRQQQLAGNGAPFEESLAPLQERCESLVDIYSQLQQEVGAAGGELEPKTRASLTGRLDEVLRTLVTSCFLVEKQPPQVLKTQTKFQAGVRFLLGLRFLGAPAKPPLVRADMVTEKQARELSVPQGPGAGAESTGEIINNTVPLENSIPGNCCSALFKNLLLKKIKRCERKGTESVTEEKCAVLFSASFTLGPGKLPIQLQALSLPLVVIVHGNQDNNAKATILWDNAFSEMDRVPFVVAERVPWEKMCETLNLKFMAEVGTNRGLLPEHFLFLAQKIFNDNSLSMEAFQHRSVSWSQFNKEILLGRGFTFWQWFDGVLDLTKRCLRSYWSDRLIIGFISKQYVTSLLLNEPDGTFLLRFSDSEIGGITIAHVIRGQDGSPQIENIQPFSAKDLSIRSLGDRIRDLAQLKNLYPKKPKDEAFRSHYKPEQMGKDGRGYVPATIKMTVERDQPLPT
# How it was run: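 STAT6 (W123-T658) at 250 nM mixed with 2 nM 5-FAM-ApYKPFQDLI-NH2 probe in HEPES pH 7.4 buffer with DTT and Tween 20, 1% DMSO final. Polarization read after 45 min at room temperature; IC50 by nonlinear regression of mP versus log concentration, reported in bins A–D.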
# T1 sequence (P40763 127-722, species assumed): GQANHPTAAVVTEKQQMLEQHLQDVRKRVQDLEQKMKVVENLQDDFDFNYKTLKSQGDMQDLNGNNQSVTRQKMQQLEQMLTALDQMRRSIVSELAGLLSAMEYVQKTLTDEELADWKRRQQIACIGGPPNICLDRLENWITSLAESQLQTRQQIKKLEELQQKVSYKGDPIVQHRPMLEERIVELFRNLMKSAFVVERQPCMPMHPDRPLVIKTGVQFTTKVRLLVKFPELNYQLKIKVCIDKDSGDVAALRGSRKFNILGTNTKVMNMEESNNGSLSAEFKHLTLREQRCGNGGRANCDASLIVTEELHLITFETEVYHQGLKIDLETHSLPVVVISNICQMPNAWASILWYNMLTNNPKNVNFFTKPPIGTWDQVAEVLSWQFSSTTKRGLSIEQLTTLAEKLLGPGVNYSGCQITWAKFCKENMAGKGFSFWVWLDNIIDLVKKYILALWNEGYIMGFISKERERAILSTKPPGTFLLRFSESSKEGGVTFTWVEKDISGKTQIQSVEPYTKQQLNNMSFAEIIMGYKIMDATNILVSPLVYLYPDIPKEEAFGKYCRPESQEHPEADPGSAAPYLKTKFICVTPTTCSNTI
SMILES,IC50 [1],IC50 [2]
"O=C(N[C@H]1C[C@@H]2C[C@@H]2C[C@H]2CC[C@@H](C(=O)N3CC(c4cc[nH]n4)C3)N2C1=O)c1cc2cc(C(F)(F)P(=O)(O)O)ccc2s1 [Compound 111, ((2-(((3S,6S,7aS,8aR,9aR)-3-(3-(1H-pyrazol-3-yl)azetidine-1-carbonyl)-5-oxodecahydro-1H-cyclopropa[d]pyrrolo[1,2-a]azocin-6-yl)carbamoyl)benzo[b]thiophen-5-yl)difluoromethyl)phosphonic acid]",< 100 nM,300 to 3000 nM
"Cc1cnc(N2C[C@H](NC(=O)[C@@H]3CC[C@@H]4C[C@H]5C[C@H]5C[C@H](NC(=O)c5cc6cc(C(F)P(=O)(O)O)ccc6s5)C(=O)N43)[C@@H](F)C2)n1C (stereo partly drawn) [Example 376, ((2-(((3S,6S,7aS,8aR,9aR)-3-(((3S,4S)-1-(1,5-dimethyl-1H-imidazol-2-yl)-4-fluoropyrrolidin-3-yl)carbamoyl)-5-oxodecahydro-1H-cyclopropa[d]pyrrolo[1,2-a]azocin-6-yl)carbamoyl)benzo[b]thiophen-5-yl)fluoromethyl)phosphonic acid]",< 100 nM,3000 to 30000 nM
"O=C(N[C@H]1C[C@@H]2C[C@@H]2C[C@H]2CC[C@@H](C(=O)N3CC(N4CCS(=O)(=O)CC4)C3)N2C1=O)c1cc2cc(C(F)P(=O)(O)O)ccc2s1 (stereo partly drawn) [Example 301, ((2-(((3S,6S,7aS,8aR,9aR)-3-(3-(1,1-dioxidothiomorpholino)azetidine-1-carbonyl)-5-oxodecahydro-1H-cyclopropa[d]pyrrolo[1,2-a]azocin-6-yl)carbamoyl)benzo[b]thiophen-5-yl)fluoromethyl)phosphonic acid]",100 to 1000 nM,3000 to 30000 nM
"C[C@@H]1COCCN1C(=O)C1CN(C(=O)[C@@H]2CC[C@@H]3C[C@H]4C[C@H]4C[C@H](NC(=O)c4cc5cc(C(F)(F)P(=O)(O)O)ccc5s4)C(=O)N32)C1 [Compound 13, (difluoro(2-(((3S,6S,7aS,8aR,9aR)-3-(3-((R)-3-methylmorpholine-4-carbonyl)azetidine-1-carbonyl)5-oxodecahydro-1H-cyclopropa[d]pyrrolo[1,2-a]azocin-6-yl)carbamoyl)benzo[b]thiophen-5-yl)methyl)phosphonic acid]",< 100 nM,3000 to 30000 nM
"COC1(c2nccn2C)CN(C(=O)[C@@H]2CC[C@@H]3C[C@@H]4C[C@@H]4C[C@H](NC(=O)c4cc5cc(C(F)(F)P(=O)(O)O)ccc5s4)C(=O)N32)C1 [Compound 75, (difluoro(2-(((3S,6S,7aR,8aS,9aR)-3-(3-methoxy-3-(1-methyl-1H-imidazol-2-yl)azetidine-1-carbonyl)-5-oxodecahydro-1H-cyclopropa[d]pyrrolo[1,2-a]azocin-6-yl)carbamoyl)benzo[b]thiophen-5-yl)methyl)phosphonic acid]",< 100 nM,3000 to 30000 nM
"N#C[C@@H]1CN(C(=O)[C@@H]2CC[C@@H]3C[C@H]4C[C@H]4C[C@H](NC(=O)c4cc5cc(C(F)(F)P(=O)(O)O)ccc5s4)C(=O)N32)C[C@H]1c1ccccc1 (relative stereo) [Compound 10, ((2-(((3S,6S,7aS,8aR,9aR)-3-((rel-trans)-3-cyano-4-phenylpyrrolidine-1-carbonyl)-5-oxodecahydro-1H-cyclopropa[d]pyrrolo[1,2-a]azocin-6-yl)carbamoyl)benzo[b]thiophen-5-yl)difluoromethyl)phosphonic acid]",100 to 1000 nM,≤ 300 nM
"O=C(N[C@H]1C[C@@H]2C[C@@H]2C[C@H]2CC[C@@H](C(=O)N3CC(C(O)c4ccccc4)C3)N2C1=O)c1cc2cc(CP(=O)(O)O)ccc2s1 (stereo partly drawn) [Example 365, ((2-(((3S,6S,7aS,8aR,9aR)-3-(3-(hydroxy(phenyl)methyl)azetidine-1-carbonyl)-5-oxodecahydro-1H-cyclopropa[d]pyrrolo[1,2-a]azocin-6-yl)carbamoyl)benzo[b]thiophen-5-yl)methyl)phosphonic acid]",1000 to 10000 nM,3000 to 30000 nM
"O=C(NC1C[C@@H]2C[C@@H]2C[C@H]2CC[C@@H](C(=O)N3CC(C(=O)N4CCOCC4)C3)N2C1=O)c1cc2cc(CP(=O)(O)O)ccc2s1 (stereo partly drawn) [Compound 20, ((2-(((3S,7aS,8aR,9aR)-3-(3-(morpholine-4-carbonyl)azetidine-1-carbonyl)-5-oxodecahydro-1H-cyclopropa[d]pyrrolo[1,2-a]azocin-6-yl)carbamoyl)benzo[b]thiophen-5-yl)methyl)phosphonic acid]",1000 to 10000 nM,> 30000 nM
"N#CC1(c2ccccn2)CN(C(=O)[C@@H]2CC[C@@H]3C[C@@H]4C[C@@H]4C[C@H](NC(=O)c4cc5cc(C(F)(F)P(=O)(O)O)ccc5s4)C(=O)N32)C1 [Compound 70, ((2-(((3S,6S,7aR,8aS,9aR)-3-(3-cyano-3-(pyridin-2-yl)azetidine-1-carbonyl)-5-oxodecahydro-1H-cyclopropa[d]pyrrolo[1,2-a]azocin-6-yl)carbamoyl)benzo[b]thiophen-5-yl)difluoromethyl)phosphonic acid]",< 100 nM,300 to 3000 nM
"O=C(N[C@H]1C[C@H]2[C@@H](C[C@H]3CC[C@@H](C(=O)N4CC(C(=O)N5CCOCC5)C4)N3C1=O)C2(F)F)c1cc2cc(C(F)(F)P(=O)(O)O)ccc2s1 [Compound 30, ((2-(((3S,6S,7aS,8aR,9aR)-8,8-difluoro-3-(3-(morpholine-4-carbonyl)azetidine-1-carbonyl)-5-oxodecahydro-1H-cyclopropa[d]pyrrolo[1,2-a]azocin-6-yl)carbamoyl)benzo[b]thiophen-5-yl)difluoromethyl)phosphonic acid]",< 100 nM,3000 to 30000 nM
"CC(=O)N1CCC2C1CN2C(=O)[C@@H]1CC[C@@H]2C[C@H]3C[C@H]3C[C@H](NC(=O)c3cc4cc(C(F)(F)P(=O)(O)O)ccc4s3)C(=O)N21 (stereo partly drawn) [Example 270, ((2-(((3S,6S,7aS,8aR,9aR)-3-(2-acetyl-2,6-diazabicyclo[3.2.0]heptane-6-carbonyl)-5-oxodecahydro-1H-cyclopropa[d]pyrrolo[1,2-a]azocin-6-yl)carbamoyl)benzo[b]thiophen-5-yl)difluoromethyl)phosphonic acid]",< 100 nM,300 to 3000 nM
"O=C(N[C@H]1C[C@@H]2C[C@@H]2C[C@H]2CC[C@@H](C(=O)N3CCN(C(=O)C4COC4)CC3)N2C1=O)c1cc2cc(C(F)(F)P(=O)(O)O)ccc2s1 [Compound 42, (difluoro(2-(((3S,6S,7aS,8aR,9aR)-3-(4-(oxetane-3-carbonyl)piperazine-1-carbonyl)-5-oxodecahydro-1H-cyclopropa[d]pyrrolo[12-a]azocin-6-yl)carbamoyl)benzo[b]thiophen-5-yl)methyl)phosphonic acid]",100 to 1000 nM,300 to 3000 nM
"O=C(N[C@H]1C[C@H]2C[C@H]2C[C@H]2CC[C@@H](C(=O)N3CC(c4cnccc4N4CCOCC4)C3)N2C1=O)c1cc2cc([C@@H](F)P(=O)(O)O)ccc2s1 (single isomer, unassigned) [Example 391]",< 100 nM,> 30000 nM
"CN(C)c1ccncc1C1CN(C(=O)[C@@H]2CC[C@@H]3C[C@H]4C[C@H]4C[C@H](NC(=O)c4cc5cc(C(F)(F)P(=O)(O)O)ccc5s4)C(=O)N32)C1 [Example 419, ((2-(((3S,6S,7aS,8aR,9aR)-3-(3-(4-(dimethylamino)pyridin-3-yl)azetidine-1-carbonyl)-5-oxodecahydro-1H-cyclopropa[d]pyrrolo[1,2-a]azocin-6-yl)carbamoyl)benzo[b]thiophen-5-yl)difluoromethyl)phosphonic acid]",< 100 nM,300 to 3000 nM
"CC(=O)N1C[C@H](NC(=O)[C@@H]2CC[C@@H]3C[C@@H]4C[C@@H]4C[C@H](NC(=O)c4cc5cc(C(F)(F)P(=O)(O)O)ccc5s4)C(=O)N32)[C@@H](F)C1 [Compound 126, ((2-(((3S,6S,7aR,8aS,9aR)-3-(((3S,4S)-1-acetyl-4-fluoropyrrolidin-3-yl)carbamoyl)-5-oxodecahydro-1H-cyclopropa[d]pyrrolo[1,2-a]azocin-6-yl)carbamoyl)benzo[b]thiophen-5-yl)difluoromethyl)phosphonic acid]",< 100 nM,300 to 3000 nM
"C[C@H]1COCCN1C(=O)C1CN(C(=O)[C@@H]2CC[C@@H]3C[C@H]4C[C@H]4C[C@H](NC(=O)c4cc5cc(C(F)(F)P(=O)(O)O)ccc5s4)C(=O)N32)C1 [Compound 14, (difluoro(2-(((3S,6S,7aS,8aR,9aR)-3-(3-((S)-3-methylmorpholine-4-carbonyl)azetidine-1-carbonyl)-5-oxodecahydro-1H-cyclopropa[d]pyrrolo[1,2-a]azocin-6-yl)carbamoyl)benzo[b]thiophen-5-yl)methyl)phosphonic acid]",< 100 nM,3000 to 30000 nM
